Laboratory results as given in ChEMBL document CHEMBL1201862, “PubChem BioAssay data set” (2004).
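Each compound was tested at five concentrations against cells in 96-well plates for 48 hours. GI50: concentration for 50% inhibition of growth.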 Activity calls are given as the source filed them. Rule as the data show it: active = GI50 up to about 1.1 µM and inactive = higher.

Key:
Assay in all cases: NCI-60 cell line screen, 48 h
XF498 = tested on: XF498
KM-20L2 = tested on: KM-20L2
SNB-78 = tested on: SNB-78
DMS-273 = tested on: DMS-273
LXFL 529 = tested on: LXFL 529
HOP-18 = tested on: HOP-18
DMS-114 = tested on: DMS-114
M19-MEL = tested on: M19-MEL
RXF 631 = tested on: RXF 631

SMILES	GI50 (XF498)	GI50 (KM-20L2)	GI50 (SNB-78)	GI50 (DMS-273)	GI50 (LXFL 529)	GI50 (HOP-18)	GI50 (DMS-114)	GI50 (M19-MEL)	GI50 (RXF 631)
CCC(C)C(=O)O[C@H]1C(=O)O[C@@H]2C[C@H]3C(C)=CC(=O)[C@@H](O)[C@]3(C)[C@H]3[C@@H](O)[C@H](O)[C@@]4(C)OC[C@]32[C@@H]14 (stereo partly drawn)	0.0208 µM (active)	0.0468 µM (active)	0.0323 µM (active)	0.019 µM (active)	0.0103 µM (active)	0.158 µM (active)	0.0152 µM (active)	0.0269 µM (active)	
Cc1nc2ccccc2c(=O)n1NC(=S)Nc1ccccc1				> 100 µM (inactive)	> 100 µM (inactive)	> 100 µM (inactive)	71.1 µM (inactive)	> 100 µM (inactive)	
N#CC(C(=O)/C(=N/N)C(C#N)c1ccc(Cl)cc1)c1ccc(Cl)cc1 (stereo not drawn)	57.3 µM (inactive)	> 100 µM (inactive)	> 100 µM (inactive)		> 100 µM (inactive)	> 100 µM (inactive)	> 100 µM (inactive)	> 100 µM (inactive)	> 100 µM (inactive)
CCc1cc(CCC(=O)Nc2ccccc2[N+](=O)[O-])nc(S)n1		> 100 µM (inactive)	> 100 µM (inactive)		> 100 µM (inactive)	> 100 µM (inactive)	> 100 µM (inactive)	> 100 µM (inactive)	> 100 µM (inactive)
CCOc1ncnc2ccc(Cl)c(I)c12	45.4 µM (inactive)	> 100 µM (inactive)		> 100 µM (inactive)	81.1 µM (inactive)		45.1 µM (inactive)	> 100 µM (inactive)	
Clc1ccccc1C1SCc2nc3ccccc3n21 (stereo not drawn)	30.3 µM (inactive)		17.1 µM (inactive)		26.4 µM (inactive)	< 0.01 µM (active)		33 µM (inactive)	
C=C(COC(C)=O)CC(/C=C(\C)CCC=C(C)C)OC(C)=O (stereo not drawn)	47.6 µM (inactive)	> 100 µM (inactive)	> 100 µM (inactive)	> 100 µM (inactive)	> 100 µM (inactive)		> 100 µM (inactive)	> 100 µM (inactive)	
CC(C)=CC(=O)C1c2cccc(O)c2C(=O)c2c(O)cc(C)cc21 (stereo not drawn)	1.54 µM (inactive)	4.86 µM (inactive)	2.86 µM (inactive)	3.48 µM (inactive)	2.04 µM (inactive)	2.15 µM (inactive)	1.79 µM (inactive)	1.81 µM (inactive)	
C=C1C(=O)OC2/C=C(\CO)C(OC(C)=O)CC(O)/C(C)=C/C(OC(=O)C(C)CC)C12 (stereo not drawn)	15.8 µM (inactive)	22.4 µM (inactive)	16.3 µM (inactive)	19.1 µM (inactive)	13.9 µM (inactive)	23.8 µM (inactive)	23.6 µM (inactive)	16.8 µM (inactive)	33.5 µM (inactive)
COC(=O)C(C(=O)C(=O)NC1=C(Cl)C(=O)c2ccccc2C1=O)c1csc(-n2nc(-c3ccccc3)cc2-c2ccccc2)n1 (stereo not drawn)	> 100 µM (inactive)	> 100 µM (inactive)	> 100 µM (inactive)	> 100 µM (inactive)	> 100 µM (inactive)	13.1 µM (inactive)	10.2 µM (inactive)	> 100 µM (inactive)	> 100 µM (inactive)
COC1OC(COCc2ccc(Cl)cc2)C(OCc2ccc(Cl)cc2)C1O (stereo not drawn)	3.07 µM (inactive)	17.3 µM (inactive)		17.3 µM (inactive)	18.4 µM (inactive)	12.8 µM (inactive)	13.7 µM (inactive)	19.2 µM (inactive)	16.2 µM (inactive)
CCCCCCC(C)OC(=O)/C=C(\CC(=O)OC(C)CCCCCC)C(=O)OC(C)CCCCCC (stereo not drawn)		> 100 µM (inactive)	> 100 µM (inactive)	> 100 µM (inactive)	> 100 µM (inactive)		> 100 µM (inactive)	> 100 µM (inactive)	
O=C(CCn1[nH]c(=O)c(Cl)c(Cl)c1=O)NO	> 100 µM (inactive)	> 100 µM (inactive)		> 100 µM (inactive)	> 100 µM (inactive)	> 100 µM (inactive)	> 100 µM (inactive)	> 100 µM (inactive)	
C=C(CS(=O)(=O)c1ccccc1)[P+](c1ccccc1)(c1ccccc1)c1ccccc1	15 µM (inactive)	17.5 µM (inactive)	38 µM (inactive)	16.4 µM (inactive)			21.6 µM (inactive)	17.3 µM (inactive)	
COC12OCCN(CCO)C1=CC(=O)C1(C)N=NC(C)C12 (stereo not drawn)			> 100 µM (inactive)	> 100 µM (inactive)	> 100 µM (inactive)	> 100 µM (inactive)	> 100 µM (inactive)	> 100 µM (inactive)	> 100 µM (inactive)
COc1ccc2nc(NC(=O)C(=O)CC(=O)c3ccc(Cl)cc3)sc2c1	46.9 µM (inactive)	71.3 µM (inactive)	> 100 µM (inactive)	> 100 µM (inactive)	> 100 µM (inactive)	78.2 µM (inactive)	> 100 µM (inactive)	> 100 µM (inactive)	
CSCC1CC(c2ccc(Cl)cc2)=NO1 (stereo not drawn)		> 100 µM (inactive)	> 100 µM (inactive)	> 100 µM (inactive)	> 100 µM (inactive)	> 100 µM (inactive)	> 100 µM (inactive)	> 100 µM (inactive)	> 100 µM (inactive)
OC/C=C(\I)CCCOCOCc1ccccc1	14 µM (inactive)	29.5 µM (inactive)	25.6 µM (inactive)	21.8 µM (inactive)	48.9 µM (inactive)		22.8 µM (inactive)	32.1 µM (inactive)	
N#Cc1ccc(Oc2ccccc2)cc1C#N	> 100 µM (inactive)	> 100 µM (inactive)	54.6 µM (inactive)	17.4 µM (inactive)	42.6 µM (inactive)	> 100 µM (inactive)	23.7 µM (inactive)	54.2 µM (inactive)	
O=c1oc2c3ccc4ccccc4c3n(CCN3CCOCC3)c2c2ccccc12		> 100 µM (inactive)			> 100 µM (inactive)	> 100 µM (inactive)	> 100 µM (inactive)	3.76 µM (inactive)	
COc1ccc(/N=N/c2c(-c3ccccc3)nn(C(=O)CC(=O)Nc3ccccc3Cl)c2-c2ccccc2)cc1		> 100 µM (inactive)	> 100 µM (inactive)	> 100 µM (inactive)	> 100 µM (inactive)	> 100 µM (inactive)	25.9 µM (inactive)	> 100 µM (inactive)	> 100 µM (inactive)
COc1ccc(NC(=O)c2cc(OC)cc(OC)c2)cc1	> 70.3 µM (inactive)	4.81 µM (inactive)	26 µM (inactive)	9.02 µM (inactive)	40.5 µM (inactive)	> 46.7 µM (inactive)	7.29 µM (inactive)		
Cc1cc(C(=C2C=CC(=N)C=C2)c2ccc(N)cc2)ccc1N [FUCHSIN, BASIC]	2.77 µM (inactive)	3.77 µM (inactive)	2.76 µM (inactive)		1.03 µM (active)		1.31 µM (inactive)	4.21 µM (inactive)	
